Results published in patent US20230416245A1, “ADENOSINE ANALOGS FOR THE TREATMENT OF DISEASE” (BIOINTERVENE, INC., priority 2020, published 2023).

Biological target: human adenosine A3 receptor (Homo sapiens (Human), UniProt P0DMS8)
Assay: Adenosine receptor binding assay ([125I]-AB-MECA competition)
Details: inhibition of 0.15 nM [125I]-AB-MECA binding, membranes of cells expressing human A3 receptor; read-out: hA3 Ki: Ki
In short: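 Competition against 0.15 nM [125I]-AB-MECA was run for 120 min at room temperature on 20 μg human A3-transfected cell membranes in 50 mM Tris pH 7.4, with or without 10 mM MgCl2. Bound label was counted after filtration. Ki was derived by Cheng-Prusoff from Hill-fitted IC50 values.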

human adenosine A3 receptor, sequence (P0DMS8 whole entry): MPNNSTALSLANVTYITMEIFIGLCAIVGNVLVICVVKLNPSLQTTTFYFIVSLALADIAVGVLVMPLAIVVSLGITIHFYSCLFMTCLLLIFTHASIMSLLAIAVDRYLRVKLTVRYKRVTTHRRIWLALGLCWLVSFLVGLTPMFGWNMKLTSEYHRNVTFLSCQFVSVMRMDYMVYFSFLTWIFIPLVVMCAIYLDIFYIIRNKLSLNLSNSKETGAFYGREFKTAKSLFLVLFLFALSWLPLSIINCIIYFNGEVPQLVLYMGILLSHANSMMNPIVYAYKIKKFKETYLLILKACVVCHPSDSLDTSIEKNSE

Row | SMILES | Ki
1 | O[C@@H]1[C@H](O)[C@@H]2C[C@@H]2[C@H]1n1cnc2c(NCC(F)F)nc(Cl)nc21 [Compound 35, (1R,2R,3S,4R,5S)-4-(2-chloro-6-((2,2-difluoroethyl)amino)-9H-purin-9-yl)bicyclo[3.1.0]hexane-2,3-diol] | 1.7 nM
2 | O[C@@H]1[C@H](O)[C@@H]2C[C@@H]2[C@H]1n1cnc2c(NCC(F)F)cc(Cl)nc21 [Compound 40, (1R,2R,3S,4R,5S)-4-(5-chloro-7-((2,2-difluoroethyl)amino)-3H-imidazo[4,5-b]pyridin-3-yl)bicyclo[3.1.0]hexane-2,3-diol] | 2 nM
3 | CCNc1cc(C#CC2CC2)nc2c1ncn2[C@H]1[C@H](O)[C@H](O)[C@@H]2C[C@@H]21 [Compound 46, (1R,2R,3S,4R,5S)-4-(5-(cyclopropylethynyl)-7-(ethylamino)-3H-imidazo[4,5-b]pyridin-3-yl)bicyclo[3.1.0]hexane-2,3-diol] | 21.3 nM
4 | Cc1c(Cl)nc2c(ncn2[C@H]2[C@H](O)[C@H](O)[C@@H]3C[C@@H]32)c1NCC(F)F [Compound 60, (1R,2R,3S,4R,5S)-4-(5-chloro-7-((2,2-difluoroethyl)amino)-6-methyl-3H-imidazo[4,5-b]pyridin-3-yl)bicyclo[3.1.0]hexane-2,3-diol] | > 9400 nM
